{"source": "patent US7994159B2", "about": "“c-Kit kinase inhibitor” (Eisai R&D Management Co., Ltd., priority 2003, dated 2011)", "key": {"[1]": {"test_system": "small cell lung cancer cell line H-526 expressing c-Kit kinase", "assay": "Effect on proliferation of H-526 cells stimulated by SCF (Cell Counting Kit-8)", "format": "cell-based", "conditions": "Homo sapiens, NCI-H526, 7th day after addition of test substance, read-out: IC50, concentration required for 50% inhibition of the cell proliferation stimulated by SCF", "method": "H-526 cells were cultured in a 5% CO2 incubator (37° C.) using an RPMI1640 medium (Nissui Pharmaceutical Co., Ltd.) containing 10% FCS (purchased from Cell Culture Technologies). After culturing, H-526 cells were washed with PBS three times and were suspended in an RPMI1640 medium containing 0.1% BSA (Sigma Corporation) (hereinafter abbreviated as “BSA-RPMI1640”) at 1.0×10^5 cells/ml. […] On the 7th day after addition of the test substance, 20 μl of Cell Counting Kit-8 (Dojin Laboratories) was added to the well and was cultured in a 5% CO2 incubator (37° C.) for about 2 hours. After color development, the absorbance of each well was determined using a MTP-32 plate reader (Colona Electric Co., Ltd.) at a measuring wavelength of 450 nm and at a reference wavelength of 660 nm. The absorbance of each well was subtracted by the absorbance of the well without addition of SCF, and then the ratio of the absorbance of the well with addition of the test substance to the ratio of the absorbance of the well without addition of the test substance was determined. This ratio was used to calculate the concentration of the test substance required for 50% inhibition of the cell proliferation (IC50)."}, "H-526 tumor": {"test_system": "H-526 tumor", "assay": "Growth of H-526 tumor transplanted to nude mice", "format": "in vivo, Balb/c nu/nu mice", "conditions": "oral, twice daily for 14 days, FIG. 2", "method": "H-526 cells were cultured in a 5% CO2 incubator (37° C.) using an RPMI1640 medium containing 10% FCS. After the culture medium was collected, H-526 cells were washed with PBS twice and were suspended in PBS at 5.0×10^7 cells/ml. This cell suspension (0.1 ml) was transplanted to the subcutaneous parts of the right flank of 6-week female Balb/c nu/nu mice (purchased from Charles River Laboratories, Inc.). After transplantation, administration of a test substance was started at the point the tumor volume reached approximately 150 mm^3, and thus, oral administration was conducted twice daily for a period of 14 days. The test substance was suspended in a 0.5% methylcellulose solution (Wako Pure Chemical Industries Co., Ltd.) so as to give a dose of 0.1 ml/10 g body weight.\nThe tumor volume was measured with a caliper twice weekly during the administration period. The long and short diameters of the tumor were measured with a caliper and the tumor volume was calculated according to the equation: ½×long diameter×short diameter×short diameter. Here, the experiment was conducted in a vehicle control group of 10 animals (solvent-administered group) as well as in a test substance administered group of 5 animals."}, "c-Kit kinase [2]": {"molecular_target": "T1, c-Kit kinase (Homo sapiens, UniProt P10721)", "T1 sequence (P10721 26-976)": "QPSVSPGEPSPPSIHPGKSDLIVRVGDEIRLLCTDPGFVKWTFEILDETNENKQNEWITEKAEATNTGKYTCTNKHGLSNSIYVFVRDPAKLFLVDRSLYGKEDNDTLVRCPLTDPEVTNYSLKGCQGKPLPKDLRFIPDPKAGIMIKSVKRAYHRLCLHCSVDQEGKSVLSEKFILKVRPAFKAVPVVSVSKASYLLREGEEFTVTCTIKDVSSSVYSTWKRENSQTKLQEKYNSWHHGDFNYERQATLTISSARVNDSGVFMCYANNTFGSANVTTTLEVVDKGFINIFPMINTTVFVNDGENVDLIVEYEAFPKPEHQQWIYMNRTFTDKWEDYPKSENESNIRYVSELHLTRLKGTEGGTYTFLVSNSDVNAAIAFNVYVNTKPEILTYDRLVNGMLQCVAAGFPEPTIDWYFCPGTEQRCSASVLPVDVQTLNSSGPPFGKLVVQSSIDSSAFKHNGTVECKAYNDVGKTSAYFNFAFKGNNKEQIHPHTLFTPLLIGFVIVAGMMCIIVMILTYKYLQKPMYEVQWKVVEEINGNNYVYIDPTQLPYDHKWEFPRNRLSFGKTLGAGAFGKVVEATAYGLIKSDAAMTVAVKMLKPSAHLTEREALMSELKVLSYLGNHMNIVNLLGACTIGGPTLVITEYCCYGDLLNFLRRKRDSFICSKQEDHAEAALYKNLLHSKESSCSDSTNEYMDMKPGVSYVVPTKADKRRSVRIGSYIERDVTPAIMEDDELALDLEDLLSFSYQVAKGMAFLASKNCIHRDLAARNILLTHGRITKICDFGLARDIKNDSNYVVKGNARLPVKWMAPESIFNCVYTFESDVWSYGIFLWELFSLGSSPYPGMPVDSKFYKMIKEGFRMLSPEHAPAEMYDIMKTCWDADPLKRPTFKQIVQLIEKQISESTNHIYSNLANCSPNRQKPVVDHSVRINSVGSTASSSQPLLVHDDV", "assay": "c-Kit kinase phosphorylation in H-526 tumor transplanted to nude mice (immunoblot)", "format": "in vivo, Balb/c nu/nu mice", "set-up": "Compound 1 reduced phosphorylated c-Kit in tumor tissue when administered at 30 or 100 mg/kg; from tissue; host or cells: H-526 tumour grown subcutaneously in female Balb/c nu/nu mice", "conditions": "H-526 tumor in nude mice, FIG. 3", "method": "0.1 ml of a H-526 cell suspension prepared at a concentration of 5.0×10^7 cells/ml, was transplanted to the subcutaneous parts of the right latus of 6-week female Balb/c nu/nu mice (purchased from Charles River Laboratories, Inc.). The animals were then divided into a vehicle control group (solvent-administered group) and a test substance administered group at the point the tumor volume reached 300-1000 mm^3: the test substance was administered to the latter group. […] After centrifugation, the supernatant was protein quantified, and a 3×SDS sample loading buffer was added to prepare a cell lysate sample. Subsequently, the cell lysate was heat-treated at 94° C. for 10 minutes and cryopreserved at -20° C. […] After electrophoresis, the sample was transferred to a PVDF membrane (Amersham Pharmacia Biotech Inc.) for 3 hours. In order to assay phosphorylated c-Kit, c-Kit and β-actin, immunoblot was performed using a phospho-c-kit ([…]) antibody (Cell Signaling Technologies, Inc.), an anti c-Kit antibody (Cell Signaling Technologies, Inc.) and an anti β-actin antibody (Sigma) as a primary antibody and an anti-rabbit IgG, HRP-linked antibody (Cell Signaling Technologies, Inc.) as a secondary antibody. After the membrane was washed, it was developed with a Super Signal (Pierce Biotechnology, Inc.)."}, "c-Kit kinase [3]": {"molecular_target": "T1, c-Kit kinase", "assay": "c-Kit kinase phosphorylation by SCF stimulation in H-526 cells (immunoblot, phospho-c-kit Tyr719)", "format": "cell-based", "set-up": "in the small cell lung cancer cell line H-526 expressing c-Kit kinase; host or cells: H-526 small cell lung cancer cells", "conditions": "1 hour test substance then 5 minutes SCF, FIG. 1", "method": "H-526 cells were cultured in a 5% CO2 incubator (37° C.) using an RPMI1640 medium containing 10% FCS. After culturing, H-526 cells were washed with PBS three times and were suspended in a BSA-RPMI1640 medium at 5.0×10^5 cells/ml. Each 1 ml of this cell suspension was inoculated to the well of a 24-well plate and the suspension was cultured in a 5% CO2 incubator (37° C.) for 6 hours. After 6-hours culturing, 1 ml of BSA-RPMI1640 containing a diluted test substance was added to each well and culturing was carried out in a 5% CO2 incubator (37° C.) for 1 hour. […] After 5-minutes culturing, the cells were washed with PBS and 100 μl of SDS sample loading buffer was added to the cells to prepare a cell lysate sample. After the sample was heat-treated at 94° C. for 10 minutes, it was cryopreserved at -20° C. […] After electrophoresis, the sample was transferred to a PVDF membrane (Amersham Pharmacia Biotech Inc.) for 3 hours. The transferred membrane was subjected to immunoblot using a phospho-c-kit ([…]) antibody (Cell Signaling Technology Inc.) as a primary antibody and an anti-rabbit IgG, HRP-linked antibody (Cell Signaling Technology Inc.) as a secondary antibody. After the membrane was washed, it was developed with a Super Signal (Pierce Biotechnology, Inc.)."}}}
{"smiles": "CONC(=O)c1cc2c(Oc3ccc(NC(=O)NC4CC4)c(Cl)c3)ccnc2cc1OC", "note": "[Compound 3, N6-Methoxy-4-(3-chloro-4-(((cyclopropylamino)carbonyl)amino)phenoxy)-7-methoxy-6-quinolinecarboxamide]", "values": [{"measurement": "IC50", "setting": "[1]", "result": 214, "unit": "nM"}]}
{"smiles": "CCNC(=O)Nc1ccc(Oc2ccnc3cc(OC)c(C(=O)NOC)cc23)cc1Cl", "note": "[Compound 4, N6-Methoxy-4-(3-chloro-4-(((ethylamino)carbonyl)amino)phenoxy)-7-methoxy-6-quinolinecarboxamide]", "values": [{"measurement": "IC50", "setting": "[1]", "result": 56.3, "unit": "nM"}]}
{"smiles": "Cc1ccc(NC(=O)c2ccc(CN3CCN(C)CC3)cc2)cc1Nc1nccc(-c2cccnc2)n1", "note": "[STI571, reference compound]", "values": [{"measurement": "anti-tumor effect on nude mouse transplanted H-526 tumor", "setting": "H-526 tumor; 160 mg/kg", "result": "little anti-tumor effect"}, {"measurement": "phosphorylated c-Kit in tumor tissue", "setting": "c-Kit kinase [2]; 160 mg/kg", "result": "partially inhibited phosphorylation"}]}
{"smiles": "COc1cc2nccc(Oc3ccc(NC(=O)NC4CC4)c(Cl)c3)c2cc1C(N)=O", "note": "[Compound 1, 4-(3-Chloro-4-(cyclopropylaminocarbonyl)aminophenoxy)-7-methoxy-6-quinolinecarboxamide]", "values": [{"measurement": "growth of nude mouse transplanted H-526 tumor (tumor volume)", "setting": "H-526 tumor", "result": "suppressed the growth of the nude mouse transplanted H-526 tumor in a dose-dependent manner"}, {"measurement": "IC50", "setting": "[1]", "result": 9.36, "unit": "nM"}, {"measurement": "c-Kit and β-actin in tumor tissue", "setting": "c-Kit kinase [2]; 30 or 100 mg/kg", "result": "remained unchanged"}, {"measurement": "phosphorylated c-Kit in tumor tissue", "setting": "c-Kit kinase [2]; 30 or 100 mg/kg", "result": "completely inhibited phosphorylation"}, {"measurement": "suppression of c-Kit kinase phosphorylation in the presence of SCF", "setting": "c-Kit kinase [3]", "result": "suppressed the c-Kit kinase phosphorylation that would take place in the presence of SCF in a concentration-dependent manner"}]}
{"smiles": "CCNC(=O)Nc1ccc(Oc2ccnc3cc(OC)c(C(N)=O)cc23)cc1Cl", "note": "[Compound 2, 4-(3-Chloro-4-(ethylaminocarbonyl)aminophenoxy)-7-methoxy-6-quinolinecarboxamide]", "values": [{"measurement": "IC50", "setting": "[1]", "result": 12.8, "unit": "nM"}]}
